# Laboratory results from patent US10772929B2, “Use of peptide compounds in treating acute pancreatitis” (SHENZHEN HIGHTIDE BIOPHARMACEUTICAL, LTD., priority 2017, dated 2020).
# Legend:
# [1] = system: sodium taurocholate-induced severe acute pancreatitis (SAP) rat model; test: Sodium taurocholate-induced severe acute pancreatitis (SAP) rat model; format: in vivo; conditions: SAP rats; for Survival Rate: 3-day experiment; for Survival rate of model animals versus model control (in words): all three doses (0.05, 0.25, 1.25 mg/kg); for Pathological score: Area of necrosis / Pathological score: Edema / Pathological score: Hemorrhage / Pathological score: Inflammation: Schmidt's scoring standard 0-4; for Pathological score: Total damage: sum of the four items
# Source text: After at least 7 days of accumulation period, 60 female and 70 male Sprague-Dawley (SD) rats were included in the study. Five females and eight males were randomly selected as the control group. Another five females and eight males were randomly selected as the sham group, the abdominal cavity was opened for each of the rats in the sham group, and a cotton swab was used to gently flip the duodenum and pancreas, then the abdominal muscle and skin were sutured after the completion of the operation The remaining animals were assigned to establish the severe acute pancreatitis (SAP) rat model using the method of retrograde injection of sodium taurocholate solution with 35 mg/kg dosage into the biliopancreatic duct. The model animals were randomly divided into 4 groups of 24 rats each (male:female=1:1) on the day after model establishment, which were the model control group (vehicle), and low dose group of peptide 12 (0.05 mg/kg), middle dose group of peptide 12 (0.25 mg/kg) and high dose group of peptide 12 (1.25 mg/kg), peptide 12 was dissolved in saline.
# The animals were subcutaneously injected once on the day after the establishment of the model, once on the second day, for a total of 2 consecutive days, and the experimental period was 3 days. During the experiment, the animals were observed by cage, including if there is any animal death or near death, mental state, behavioral activities, fecal characteristics, skin, hair, eyes, ears, nose, abdomen, external genitals, anus, limbs, feet, respiration, etc. At the end of the experiment, all the surviving rats were weighed and blood samples were collected to detect the levels of amylase, calcium and lipase in serum of rats in each group. The general anatomical observation was made, focusing on the status of pancreas, gastrointestinal tract, ascites, bile duct obstruction, pulmonary congestion and saponification spots. The pancreas was preserved in 10% formalin fixative for further pathological analysis.
# The severity of pancreatic injury was assessed by preparing HE slices of pancreas and using Schmidt's scoring standard to evaluate the pathological changes of pancreatic edema, inflammation, hemorrhage and necrosis. The total pancreatic injury calculated as the sum of the above four items.
# [2] = system: caerulein-induced acute pancreatitis (AP) model; test: Caerulein-induced acute pancreatitis (AP) mouse model; format: in vivo, BALB/c mice; conditions: caerulein AP mice; for Pathological score: Area of necrosis / Pathological score: Edema / Pathological score: Hemorrhage / Pathological score: Inflammation: Schmidt's scoring standard; for Edema of the pancreas versus model group (in words): FIG. 12; for Inflammation of the pancreas versus model group (in words): FIG. 13; for Level of amylase versus model control / Level of lipase versus model control: doses of 0.025, 0.25, 2.5 and 25 mg/kg; for Level of amylase versus model control: FIG. 10, P<0.001; for Level of lipase versus model control: FIG. 11, P<0.001
# Description: Male BALB/c mice, aged 6-8 weeks, were accumulated for more than 7 days. After fasting overnight, 10 animals were randomly selected as normal control. The remaining animals were injected with caerulein 50 μg/kg intraperitoneally every 1 hour for 10 times to induce acute pancreatitis, and they were randomly divided into model control group and peptide 12 treatment groups with the dosage of 0.025, 0.25, 2.5 and 25 mg/kg respectively, there were 10 mice in each group. Mice were given corresponding doses of peptide 12 or normal saline 5 minutes before the fourth injection of caerulein.
# The experiment was finished one hour after the 10th injection of caerulein, blood samples were collected for the determination of amylase and lipase levels. Pancreas were weighed and fixed in 10% formalin solution for subsequent pathological analysis.
# The pancreatic index was calculated as pancreatic weight/body weight, which reflected the severity of pancreatic edema. The statistical results were shown in FIG. 9, in which ### means P<0.001 compared with the normal control group; ** means P<0.01 compared with the model control group, *** means P<0.001 compared with the model control group. […] It should be noted that in FIG. 10, ### means P<0.001 compared with the normal control group; *** means P<0.001 compared with the model control group; in FIG. 11, ### means P<0.001 compared with the normal control group; *** means P<0.001 compared with the model control group.
# The severity of pancreatic injury was assessed by preparing HE slices of pancreas and using Schmidt's scoring standard to evaluate the pathological changes of pancreatic edema, inflammation, hemorrhage and necrosis.
# [3] = listed as Ac-IGLHD PSHGT LPAGS-OH
substance,measurement,setting,value
Ac-IGLHDPSHGTLPAGS-OH [Peptide 12],Ratio (treatment group/model group) of survival,[1]; 0.05 mg/kg,1.11
same,Survival Rate,[1]; 0.05 mg/kg subcutaneous once daily for 2 days,41.7%
same,Ratio (treatment group/model group) of survival,[1]; 0.25 mg/kg,1.33
same,Survival Rate,[1]; 0.25 mg/kg subcutaneous once daily for 2 days,50.0%
same,Ratio (treatment group/model group) of survival,[1]; 1.25 mg/kg,1.78
same,Survival Rate,"[1]; 1.25 mg/kg subcutaneous once daily for 2 days, 1.25 mg/kg",66.7%
same,Pathological changes of pancreas caused by sodium taurocholate,"[1]; FIG. 4 to FIG. 8, dose-dependent",reduce
same,Survival rate of model animals versus model control (in words),[1]; [3],significantly increase
same,Survival rate of model animals versus model control (in words),[1]; listed as peptide 12,improved
same,Pathological score: Area of necrosis,[1]; high dose (1.25 mg/kg),1.13 ± 0.85
same,Pathological score: Edema,[1]; high dose (1.25 mg/kg),1.21 ± 0.96
same,Pathological score: Hemorrhage,[1]; high dose (1.25 mg/kg),1.15 ± 0.83
same,Pathological score: Inflammation,[1]; high dose (1.25 mg/kg),2.67 ± 1.00
same,Pathological score: Total damage,[1]; high dose (1.25 mg/kg),6.15 ± 2.69
same,Pathological score: Area of necrosis,[1]; low dose (0.05 mg/kg),1.63 ± 0.74
same,Pathological score: Edema,[1]; low dose (0.05 mg/kg),1.33 ± 0.86
same,Pathological score: Hemorrhage,[1]; low dose (0.05 mg/kg),1.73 ± 0.89
same,Pathological score: Inflammation,[1]; low dose (0.05 mg/kg),2.90 ± 1.22
same,Pathological score: Total damage,[1]; low dose (0.05 mg/kg),7.60 ± 3.07
same,Pathological score: Area of necrosis,[1]; middle dose (0.25 mg/kg),1.11 ± 0.78
same,Pathological score: Edema,[1]; middle dose (0.25 mg/kg),1.44 ± 0.87
same,Pathological score: Hemorrhage,[1]; middle dose (0.25 mg/kg),1.31 ± 0.87
same,Pathological score: Inflammation,[1]; middle dose (0.25 mg/kg),2.83 ± 0.93
same,Pathological score: Total damage,[1]; middle dose (0.25 mg/kg),6.69 ± 2.53
same,Mental state and activity state of the surviving animals versus model control,"[1]; treatment groups 0.05, 0.25, 1.25 mg/kg",significantly better
same,"General anatomy of surviving animals (pancreas edema and liquefaction, gastrointestinal obstruction, ascites volume, bile duct obstruction, pulmonary congestion, saponification spots)",[1]; treatment groups versus control group,improved with varying degrees
same,Level of amylase in blood versus model control,"[1]; treatment groups, FIG. 2",decreased
same,Level of lipase in blood versus model control,"[1]; treatment groups, FIG. 3",decreased
same,Pathological score: Area of necrosis,[2]; 0.025 mg/kg,0.00 ± 0.00
same,Pathological score: Edema,[2]; 0.025 mg/kg,1.50 ± 0.84
same,Pathological score: Hemorrhage,[2]; 0.025 mg/kg,0.00 ± 0.00
same,Pathological score: Inflammation,[2]; 0.025 mg/kg,1.33 ± 0.52
same,Pathological score: Area of necrosis,[2]; 0.25 mg/kg,0.00 ± 0.00
same,Pathological score: Edema,[2]; 0.25 mg/kg,1.67 ± 0.82
same,Pathological score: Hemorrhage,[2]; 0.25 mg/kg,0.00 ± 0.00
same,Pathological score: Inflammation,[2]; 0.25 mg/kg,1.17 ± 0.75
same,Pathological score: Area of necrosis,[2]; 2.5 mg/kg,0.00 ± 0.00
same,Pathological score: Edema,[2]; 2.5 mg/kg,1.17 ± 1.17
same,Pathological score: Hemorrhage,[2]; 2.5 mg/kg,0.00 ± 0.00
same,Pathological score: Inflammation,[2]; 2.5 mg/kg,0.83 ± 0.75
same,Pathological score: Area of necrosis,[2]; 25 mg/kg,0.00 ± 0.00
same,Pathological score: Edema,[2]; 25 mg/kg,1.50 ± 0.55
same,Pathological score: Hemorrhage,[2]; 25 mg/kg,0.33 ± 0.82
same,Pathological score: Inflammation,[2]; 25 mg/kg,2.17 ± 0.75
same,Edema of the pancreas versus model group (in words),[2]; [3],significantly reduced
same,Edema of the pancreas versus model group (in words),[2]; listed as peptide 12,alleviated
same,Inflammation of the pancreas versus model group (in words),[2]; [3],significantly reduced
same,Inflammation of the pancreas versus model group (in words),[2]; listed as peptide 12,alleviated
same,Level of amylase versus model control,[2],significantly lowered
same,Level of amylase versus model control,[2]; [3],significantly reduced
same,Level of lipase versus model control,[2],significantly lowered
same,Level of lipase versus model control,[2]; [3],significantly reduced
same,Pancreatic index (pancreatic weight/body weight) versus model control,"[2]; doses of 0.025, 0.25 and 2.5 mg/kg, dose dependent, FIG. 9",significantly decreased
